From patent US6451818B1, “Therapeutic use of 1,6-dimethyl-8β-hydroxymethyl-10α-methoxyergoline” (Aventis Pharma S.A., priority 1998, dated 2002)

How the values were obtained:
[1] = tested on: motor neurons (astrocyte/motor neuron co-cultures); assay: Neuronal survival in astrocyte/motor neuron co-cultures; type: cell-based, rat; conditions: for % of labelled motor neurons, very large motor neurons: vehicle alone = 100 ± 2.8; for % of labelled motor neurons, all the motor neurons: vehicle alone = 100 ± 9.4
Procedure: (§1) The motor-neuron-enriched cultures are prepared using the centrifugation method which was described by R. L. SCHNAAR and A. E. SCHAFFNER, J. Neurosci., 1, 204-217 (1981) and modified by W. CAMU and C. E. HENDERSON, J. Neurosci. Methods, 44, 59-70 (1992). The motor neurons are spread, at a density of 2500 cells per plate, on 35 mm culture plates which have previously been coated with laminin/ornithine in accordance with the method of A. G. ESTEVEZ et al., J. Neurosci., 18 (3), 923-931 (1998). The cultures are then maintained in L15 medium (GIBCO BRL) containing sodium bicarbonate (22 mM), conalbumin (0.1 mg/ml), putrescine (0.1 mM), insulin (5 μg/ml), sodium selenite ([…]), glucose (20 mM), progesterone (21 nM), penicillin (100 IU/ml) and streptomycin (100 μg/ml).
(§2) The astrocytes are obtained from young, one-day-old rats using the slightly modified method of R. P. SANETO and J. DE VELLIS as described in Neurochemistry a practical approach (A. J. TURNER and H. A. St JOHN) IRL Press, Oxford-Washington D.C., pp. 27-63. The spinal cords are dissected out under sterile conditions and freed of meninges and dorsal ganglia. Five to ten spinal cords are transferred into PBS (phosphate buffered saline) and cut before being incubated at 37° C. for 25 minutes in PBS to which 0.25% trypsin has been added. The enzymatic treatment is stopped by adding 10 ml of Dulbecco's modified Eagle medium (DMEM), to which 10% fetal calf serum (FCS) has been added, and the cells are collected by centrifugation. Another step of mechanical dissociation is performed using the end of a 1 ml pipette. The cells are spread, at a density of 1.5-2×10^6 cells per 25 cm^2 of culture medium, in DMEM containing 10% FCS. After 2 days in vitro, the cultures are fed every day. When a visible monolayer of cells has been completed, the cultures are stirred at 250 rpm for 48 hours and, on the following day, the monolayers are treated with cytosine arabinoside (10^−5 M) for 48 hours. The astrocyte monolayers are then amplified to a density of five on 35 mm culture plates for initially 25 cm^2 culture flasks.
The cells are fixed in 4% paraformaldehyde and 0.1% glutaraldehyde in PBS (pH 7.4 and at 4° C. for 15 minutes) and in a cold methanolic solution. The cultures are then washed and the nonspecific sites are blocked with 10% goat serum and 2% bovine serum albumin (BSA) in PBS and treated for immunochemistry using antibodies against the p75 weak affinity neurotrophin receptor or a 200 kD neurofilament protein (Amersham) using the manufacturer's instructions and applying the avidin-biotin-DAB/hydrogen peroxide enhancement reaction.
The astrocytes are treated with 1,6-dimethyl-8β-hydroxymethyl-10α-methoxyergoline in the following manner: the product is dissolved in methanol, sterilized by filtration and used immediately after preparation. The treatment which is applied to the enriched motor neuron cultures is effected by adding aliquots of solutions of the products to be tested to the L15 medium by spreading. The astrocyte monolayers are exposed to the vehicle or to the solutions of the compound to be tested for 24 hours and at different concentrations. […]
(§3) The number of motor neurons is estimated by counting the labelled cells in an area of 0.4-1 cm^2 under a microscope which enlarges 200 times. In all cases, the values are expressed as a percentage of the number of motor neurons which are present in cultures maintained using trophic factors. […]

[2] = tested on: motor neurons (astrocyte-conditioned medium); assay: Motor neuron survival in medium conditioned by treated spinal astrocyte monolayers (neurotrophic activity produced by spinal astrocytes); type: cell-based, rat; conditions: % of motor neurons in cultures with trophic factors
Procedure: as §1
as §2, with “When a visible monolayer of cells has been completed, the cultures are stirred at 250 rpm for 48 hours and, on the following day, the monolayers are treated with cytosine arabinoside (10^−5 M) for 48 hours. The astrocyte monolayers are then amplified to a density of five on 35 mm culture plates for initially 25 cm^2 culture flasks.” left out
as §3

[3] = tested on: motor neurons (co-cultures of astrocyte monolayers and motor neurons); assay: Motor neuron survival, co-cultures of astrocyte monolayers and motor neurons; type: cell-based, rat; conditions: vehicle alone 43.9 ± 4
Procedure: as §1, §2
The spinal astrocyte cultures consist, to an extent of more than 98%, of flat, polygonal cells which are immunoreactive for the glial fibrillar acid protein (GFAP). The monolayers are exposed to the product to be tested and then incubated with the motor neuron medium in order to obtain a conditioned culture medium. […]
as §3

[4] = tested on: trophic factor-deprived motor neurons; assay: Neuronal death in motor-neuron-enriched cultures in the absence of trophic factor; type: cell-based
Procedure: as §1
More than 70% of the cells are immunoreactive for the neurotrophin p75 receptor and the Islet ½ markers for spinal motor neurons. Approximately 70% of the motor neurons die by apoptosis 24 hours after the spreading if the culture is performed in the absence of a trophic factor. […]
as §3

CO[C@]12C[C@@H](CO)CN(C)[C@@H]1Cc1cn(C)c3cccc2c13 [1,6-Dimethyl-8β-hydroxymethyl-10α-methoxyergoline]
% of labelled motor neurons, very large motor neurons ([1]; 0.1 μM): 122.6 ± 8.2 %
% of labelled motor neurons, all the motor neurons ([1]; 0.1 μM): 123 ± 9.3 %
% of labelled motor neurons, very large motor neurons ([1]; 1 μM): 117 ± 5.6 %
% of labelled motor neurons, all the motor neurons ([1]; 1 μM): 158.9 ± 32 %
% of labelled motor neurons, all the motor neurons ([1]; 10 μM): 137.5 ± 19 %
Motor neuron survival in % ([2]; dilution of the astrocyte-conditioned medium 1:4, vehicle alone 59.9 ± 8): 90.6 ± 4.9 %
Motor neuron survival in % ([2]; dilution of the astrocyte-conditioned medium 1:10, vehicle alone 45.4 ± 4.2): 74.8 ± 6.3 %
Motor neuron survival in % ([2]; dilution of the astrocyte-conditioned medium 1:50, vehicle alone 36.9 ± 3.2): 49.6 ± 5.3 %
Motor neuron survival in % ([3]; tested product 1 nM): 42.5 ± 4%
Motor neuron survival in % ([3]; tested product 10 nM): 48.9 ± 3 %
Motor neuron survival in % ([3]; tested product 100 nM): 57.4 ± 4 %
Motor neuron survival in % ([3]; tested product 1 μM): 68.7 ± 8 %
Neuronal arborization and cell morphology [4]: remain well preserved
Increase of the survival of trophic factor-deprived motor neurons ([4]; p<0.001): 60%
